Patent US20250032623A1, “HETEROBIFUNCTIONAL COMPOUNDS AND THEIR USE IN TREATING DISEASE” (HALDA THERAPEUTICS OPCO, INC., priority 2021, published 2025)

How the values were obtained:
HEK293 cells = experiment: Cellular growth inhibition assay (CellTiter-Glo), HEK293 cells; assay type: cell-based; conditions: Homo sapiens, 72 h, three days compound treatment, CellTiter-Glo 2.0, read-out: CTG HEK293 GI50
Procedure, shortened: (§1)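 HEK293 or HeLa cells seeded at 500 cells/well in DMEM with 10% FBS, treated after 24 h with titrated compound for three days at 37 °C, 5% CO2. CellTiter-Glo 2.0 luminescence read on Day 0 and Day 3, normalized to DMSO, four-parameter fit giving GI50.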

HeLa cells = experiment: Cellular growth inhibition assay (CellTiter-Glo), HeLa cells; assay type: cell-based; conditions: Homo sapiens, 72 h, three days compound treatment, CellTiter-Glo 2.0, read-out: CTG HELA GI50
Procedure, shortened: as §1

KRAS G12C = biological target: T1, KRAS G12C (Homo sapiens, UniProt P01116, G12C); experiment: KRAS G12C nucleotide exchange assay (SOS1 mediated, HTRF); assay type: biochemical; conditions: 1 hr pre-incubation at RT, read-out: IC50 (inhibition of KRas G12C)
T1 construct: Kras (aa 2-169), GST; purchased Reaction Biology Corporation (RBC)
T1 sequence (P01116 2-169 isoform P01116-2 G12C): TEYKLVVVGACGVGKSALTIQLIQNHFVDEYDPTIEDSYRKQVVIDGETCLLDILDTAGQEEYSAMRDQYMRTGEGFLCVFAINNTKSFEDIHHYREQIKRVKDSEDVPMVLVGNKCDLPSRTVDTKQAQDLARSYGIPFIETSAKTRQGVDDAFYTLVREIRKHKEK
Procedure, shortened: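 HTRF nucleotide exchange using KRAS G12C mixed with anti-GST Tb antibody and pre-incubated with compound for 1 h at RT. Exchange was started with SOS1 plus labelled GTP. Compounds ran as 10-point, 3-fold dilutions from 10 μM, with no-SOS1 or top concentration as blank and IC50 from a variable-slope sigmoidal fit.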

[1] = biological target: T2, full-length CDK9 (amino acids 1-372; Accession Number NP_001252.1) (Homo sapiens, UniProt P50750); experiment: KdELECT binding assay, CDK9
T2 construct: full-length CDK9 (amino acids 1-372); purchased; host or cells: bacteria (E. coli, BL21-derived, T7 phage)
T2 sequence (P50750 whole entry, the tested form may be a part): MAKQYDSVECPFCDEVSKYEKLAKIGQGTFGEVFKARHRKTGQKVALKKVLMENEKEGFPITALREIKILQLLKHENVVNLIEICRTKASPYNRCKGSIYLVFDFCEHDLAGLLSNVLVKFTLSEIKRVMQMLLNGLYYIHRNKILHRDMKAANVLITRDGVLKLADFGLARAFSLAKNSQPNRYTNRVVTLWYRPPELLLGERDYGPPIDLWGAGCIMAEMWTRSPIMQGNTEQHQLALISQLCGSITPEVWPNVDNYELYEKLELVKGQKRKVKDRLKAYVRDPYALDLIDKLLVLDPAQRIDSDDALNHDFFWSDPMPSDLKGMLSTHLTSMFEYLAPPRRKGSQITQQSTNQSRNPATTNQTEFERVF
Experimental: Exemplary compounds were tested for ability to bind to full-length CDK9 (amino acids 1-372; Accession Number NP_001252.1) expressed from bacteria. Compounds were tested using a KdELECT assay.
Kinase-tagged T7 phage strains were prepared in an E. coli host derived from the BL21 strain. E. coli were grown to log-phase and infected with T7 phage and incubated with shaking at 32° C. until lysis. The lysates were centrifuged and filtered to remove cell debris. The remaining kinases were produced in HEK-293 cells and subsequently tagged with DNA for qPCR detection. Streptavidin-coated magnetic beads were treated with biotinylated small molecule ligands for 30 minutes at room temperature to generate affinity resins for kinase assays. The liganded beads were blocked with excess biotin and washed with blocking buffer (SeaBlock (Pierce), 1% BSA, 0.05% Tween 20, 1 mM DTT) to remove unbound ligand and to reduce non-specific binding. Binding reactions were assembled by combining kinases, liganded affinity beads, and test compounds in 1× binding buffer (20% SeaBlock, 0.17×PBS, 0.05% Tween 20, 6 mM DTT). Test compounds were prepared as 111× stocks in 100% DMSO. Kd values were determined using an 11-point 3-fold compound dilution series with three DMSO control points. All compounds for Kd measurements are distributed by acoustic transfer (non-contact dispensing) in 100% DMSO. The compounds were then diluted directly into the assays such that the final concentration of DMSO was 0.9%. All reactions performed in polypropylene 384-well plate. Each was a final volume of 0.02 mL. The assay plates were incubated at room temperature with shaking for 1 hour and the affinity beads were washed with wash buffer (1×PBS, 0.05% Tween 20). The beads were then re-suspended in elution buffer (1×PBS, 0.05% Tween 20, 0.5 μM nonbiotinylated affinity ligand) and incubated at room temperature with shaking for 30 minutes. The kinase concentration in the eluates was measured by qPCR.

Row | SMILES | GI50 (HEK293 cells) | GI50 (HeLa cells) | IC50 (KRAS G12C) | Kd [1]
1 | CCc1cnn2c(NCc3ccc(OCCOCCOCCOCCOCCOC/C=C/C(=O)N4CCN(c5nc(OC[C@@H]6CCCN6C)nc6c5CCN(c5cccc7cccc(Cl)c57)C6)C[C@@H]4CC#N)nc3)cc(N3CCCCC3CCO)nc12 (stereo partly drawn) [Compound I-86, 2-[(2S)-4-[7-(8-chloro-1-naphthyl)-2-[[(2S)-1-methylpyrrolidin-2-yl]methoxy]-6,8-dihydro-5H-pyrido[3,4-d]pyrimidin-4-yl]-1-[(E)-4-[2-[2-[2-[2-[2-[[5-[[[3-ethyl-5-[2-(2-hydroxyethyl)-1-piperidyl]pyrazolo[1,5-a]pyrimidin-7-yl]amino]methyl]-2-pyridyl]oxy]ethoxy]ethoxy]ethoxy]ethoxy]ethoxy]but-2-enoyl]piperazin-2-yl]acetonitrile] | 500 to 1500 nM | < 500 nM | 100 to 1000 nM | < 50 nM
2 | CCc1cnn2c(NCc3ccc(OCCOCCOCCOCCOCCN(C)C/C=C/C(=O)N4CCN(c5nc(OC[C@@H]6CCCN6C)nc6c5CCN(c5cccc7cccc(Cl)c57)C6)C[C@@H]4CC#N)nc3)cc(N3CCCC[C@H]3CCO)nc12 [Compound I-92, 2-((S)-4-(7-(8-chloronaphthalen-1-yl)-2-(((S)-1-methylpyrrolidin-2-yl)methoxy)-5,6,7,8-tetrahydropyrido [3,4-d]pyrimidin-4-yl)-1-((E)-1-((5-(((3-ethyl-5-((S)-2-(2-hydroxyethyl)piperidin-1-yl)pyrazolo[1,5-a]pyrimidin-7-yl)amino)methyl)pyridin-2-yl)oxy)-15-methyl-3,6,9,12-tetraoxa-15-azanonadec-17-en-19-oyl)piperazin-2-yl)acetonitrile] | 500 to 1500 nM | < 500 nM | < 100 nM | > 2500 nM
3 | CCc1cnn2c(NCc3ccc(OCCOCCOCCOC4CCN(C/C=C/C(=O)N5CCN(c6nc(OC[C@@H]7CCCN7C)nc7c6CCN(c6cccc8cccc(Cl)c68)C7)C[C@@H]5CC#N)CC4)nc3)cc(N3CCCC[C@H]3CCO)nc12 [Compound I-90, 2-((S)-4-(7-(8-chloronaphthalen-1-yl)-2-(((S)-1-methylpyrrolidin-2-yl)methoxy)-5,6,7,8-tetrahydropyrido [3,4-d]pyrimidin-4-yl)-1-((E)-4-(4-(2-(2-(2-((5-(((3-ethyl-5-((S)-2-(2-hydroxyethyl)piperidin-1-yl)pyrazolo[1,5-a]pyrimidin-7-yl)amino)methyl)pyridin-2-yl)oxy)ethoxy)ethoxy)ethoxy)piperidin-1-yl)but-2-enoyl)piperazin-2-yl)acetonitrile] | < 500 nM | < 500 nM | < 100 nM | < 50 nM
